Measurements taken from publication PMC12783734, “Carboxymethylcytosine is a natural base modification and a handle for bacteriophage DNA hypermodification” (Nature Communications, 2025).

Molecular target: T1, EcCmoA (Escherichia coli, UniProt P76290)
T1 construct: gene cmoA; E. coli BL21(DE3)
Assay: HPLC / LC-MS of Cx-SAM formation
Format: biochemical
Details: co-substrate prephenate; sodium phosphate pH 6.8; 37 C

T1 sequence (P76290 whole entry): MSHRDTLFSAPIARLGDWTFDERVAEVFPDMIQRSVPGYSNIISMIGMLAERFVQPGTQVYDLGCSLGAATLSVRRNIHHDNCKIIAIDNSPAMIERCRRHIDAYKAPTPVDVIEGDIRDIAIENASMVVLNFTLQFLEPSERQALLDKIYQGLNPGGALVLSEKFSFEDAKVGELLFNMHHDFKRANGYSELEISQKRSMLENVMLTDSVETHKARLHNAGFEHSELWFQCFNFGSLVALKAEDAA

Question: How did the “HPLC / LC-MS of Cx-SAM formation” value turn out when C[S+](CC[C@H](N)C(=O)O)C[C@H]1O[C@@H](n2cnc3c(N)ncnc32)[C@H](O)[C@@H]1O (stereo partly shown) [SAM] was run?
Answer: The value was “Incubation with either SpCmoA or EcCmoA led to a decrease in the SAM peak”.
